Results from patent US20070148258A1, “Dialysates and methods and systems related thereto” (priority 2003, published 2007).
Read-outs that look alike come from different tables or passages of the source.

Columns and labels:
[1] = human, in vivo
Method: Samples were drawn immediately before and immediately after dialysis from the predialyzer tubing. The lines to the left and right indicate the mean values before and after dialysis respectively.
(§1) Several studies were undertaken to determine the extent of PPi removal with dialysis. […] In 17 patients, some of whom were included in the predialysis data, plasma PPi concentration was measured before and after dialysis (FIG. 3).
Dialysate was collected during 4 treatments in 4 different patients order to measure the total amount of PPi removed.

injured aortas = tested on: injured aortas
Method: Injured aortas were incubated for 6 days in DMEM containing 3.8 mM PO4^−3 and varying concentrations of pyrophosphate. Results are means of at least 4 aortic rings.

aortic cultures = conditions: based on rate of hydrolysis of [32P]pyrophosphate
[2] = human, in vivo; remark: listed apart in the source
Method: To determine whether PPi metabolism is altered in hemodialysis patients, plasma levels and dialytic clearance of PPi were measured in stable hemodialysis patients. Predialysis plasma samples were obtained from 15 patients in an outpatient dialysis unit and from 23 inpatients. The inpatients were clinically stable and were admitted for transplant evaluation or for dialysis access problems.

[3] = 4 L PPi in physiologic saline, 400 ml/min, dialysate without calcium 800 ml/min, 2.1 m^2 cellulose acetate membrane
Method: FIG. 2 is an exemplary graph illustrating the results of in vitro dialysis of pyrophosphate. […] The concentration of pyrophosphate was measured at the times indicated. The line represents a single exponential fit.
as §1

normal aortas = assay: Calcification of normal aortas cultured in high-PO4 medium with added enzymes; format: cell-based, rat; conditions: enzyme added to culture in DMEM with 3.8 mM PO4 (inorganic pyrophosphatase 12-20 units/ml, 9 days)

Row | Compound | Decrease of plasma PPi concentration after dialysis, range [1] | Inhibition of calcification in injured aortas (injured aortas; 2.5 M pyrophosphate, 6 days in DMEM with 3.8 mM PO4) | Concentrations at which inhibition of vascular calcification occurs in vitro (injured aortas; concentrations normally present in human plasma) [µM] | Concentration that maximally inhibited calcification in injured aortas (injured aortas; cultured rat aortas) | Estimated pyrophosphate concentration 3 days after adding (aortic cultures; 5 μM added) [µM] | Estimated pyrophosphate concentration 3 days after adding (aortic cultures; 10 μM added) [µM] | Estimated pyrophosphate concentration 3 days after adding (aortic cultures; 30 μM added) [µM] | Mean plasma [PPi] lower in hemodialysis patients than in normal subjects [2] [%] | In vitro dialyzer clearance of PPi [3] [%] | Effect on calcification of normal aortas (normal aortas)
1 | O=P(O)(O)OP(=O)(O)O [pyrophosphate] | 4-59% | no inhibition | 3 to 5 | approximately 3 μM | 18 | 3.1 | 7.9 | 31 | 36 | 
2 | Alkaline phosphatase |  |  |  |  |  |  |  |  |  | induced calcification
